Active and inactive are the calls of the source. Cut-off read from the data, not from the text of the source, for most assays here: actives have a measured EC50 and inactives only a lower limit.
Tests used:
[1] = target: T1, Heat shock factor protein 1 (Mus musculus, UniProt P38532); test: inhibition of MG132-induced HSE-luciferase signal, confirmation, cell-based, NIH3T3, luminescence, dose retest (AID 2382); format: functional;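 note: NIH3T3 fibroblasts with HSF1-driven luciferase reporter stressed by proteasome inhibitor MG132; luminescence from HSF1-driven luciferase expression after 8 hours of MG132 stress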
T1 sequence (P38532 whole entry): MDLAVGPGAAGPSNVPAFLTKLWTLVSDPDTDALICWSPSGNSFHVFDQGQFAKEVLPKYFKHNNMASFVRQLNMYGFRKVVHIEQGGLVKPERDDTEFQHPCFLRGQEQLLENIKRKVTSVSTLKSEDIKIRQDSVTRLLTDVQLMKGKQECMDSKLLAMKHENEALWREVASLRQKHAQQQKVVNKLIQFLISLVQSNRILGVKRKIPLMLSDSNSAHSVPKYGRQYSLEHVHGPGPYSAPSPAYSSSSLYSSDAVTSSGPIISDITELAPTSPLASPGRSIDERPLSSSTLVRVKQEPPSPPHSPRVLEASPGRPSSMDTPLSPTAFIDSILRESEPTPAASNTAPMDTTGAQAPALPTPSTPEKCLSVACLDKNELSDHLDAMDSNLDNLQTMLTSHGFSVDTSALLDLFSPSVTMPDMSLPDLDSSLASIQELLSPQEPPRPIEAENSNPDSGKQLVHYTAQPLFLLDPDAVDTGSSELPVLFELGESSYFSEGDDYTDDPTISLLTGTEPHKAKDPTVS

[2] = C. albicans growth with fluconazole, confirmation, fluorescence, retest (AID 2467); format: functional, cell-based
[3] = NIH-3T3 fibroblast cytotoxicity, dose response, cytotoxicity control, cell-based, fluorescence, Alamar Blue, secondary assay (AID 2327); format: functional;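 note: NIH-3T3 mouse fibroblasts cultured with fluconazole at 8 µg/mL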
[4] = cytotoxicity toward NIH3T3 fibroblasts, dose response, counter-screen, cell-based, ATP luminescence, mouse fibroblasts (AID 2010); format: functional; conditions: NIH3T3;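 note: cells exposed to compound for about 90 hours before reading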
[5] = inhibitors of intracellular T. cruzi replication, confirmation, NIH3T3 host cells, beta-gal luminescence (AID 2044); format: functional, cell-based;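 note: intracellular parasites grown in NIH/3T3 mouse fibroblasts as host cells; luminescent beta-galactosidase reporter signal from transgenic T. cruzi replicating inside host cells; inhibitors lower the luminescence signal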
INS1 = test: beta cell apoptosis inhibitors, cytokine rescue, dose response, luminescence, retest (AID 449756); format: functional, cell-based; conditions: Rattus norvegicus;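 note: cell death triggered by IL-1 beta plus TNF-alpha plus IFN-gamma mixture; protective hits raise ATP signal compared with cytokine alone wells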
[6] = inhibitors of firefly luciferase expression or activity, dose response, H4 neuroglioma cells, luminescence (AID 1990); format: functional, cell-based
[7] = inhibitors of SNCA 5'UTR-driven reporter translation, confirmation, H4 neuroglioma cells, luminescence (AID 1988); format: functional, cell-based
[8] = Luminescence Cell-Based Dose Response HTS to Identify Inhibitors of 5'UTR Stem-Loop Driven Prion Protein mRNA Translation in H4 Neuroglioblastoma Cells. [Related pubchem assays: 1827 (Project Summary), 1813 (Primary HTS)]; format: functional
Cytochrome P450 1A2 = target: T2, Cytochrome P450 1A2 (Homo sapiens, UniProt P05177);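 note: PubChem cytochrome P450 panel assay, CYP1A2 panel member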
T2 sequence (P05177 whole entry): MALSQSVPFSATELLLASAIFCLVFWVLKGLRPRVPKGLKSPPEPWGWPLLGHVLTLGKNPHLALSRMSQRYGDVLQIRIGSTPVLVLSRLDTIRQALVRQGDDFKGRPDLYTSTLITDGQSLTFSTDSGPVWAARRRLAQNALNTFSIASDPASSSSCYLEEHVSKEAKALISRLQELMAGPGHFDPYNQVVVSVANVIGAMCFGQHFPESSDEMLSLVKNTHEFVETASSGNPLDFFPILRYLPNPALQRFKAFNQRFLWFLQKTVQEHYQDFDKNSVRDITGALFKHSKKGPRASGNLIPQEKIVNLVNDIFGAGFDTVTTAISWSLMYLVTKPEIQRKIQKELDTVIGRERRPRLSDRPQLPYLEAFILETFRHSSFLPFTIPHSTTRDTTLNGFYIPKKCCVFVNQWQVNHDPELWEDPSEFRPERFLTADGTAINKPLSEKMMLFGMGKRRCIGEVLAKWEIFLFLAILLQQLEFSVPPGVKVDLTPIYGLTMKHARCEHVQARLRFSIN

Cytochrome P450 2D6 = Cytochrome P450 2D6 (Homo sapiens, UniProt P10635);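 note: CYP2D6 member of a cytochrome P450 panel assay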
Sequence of Cytochrome P450 2D6 (P10635 whole entry): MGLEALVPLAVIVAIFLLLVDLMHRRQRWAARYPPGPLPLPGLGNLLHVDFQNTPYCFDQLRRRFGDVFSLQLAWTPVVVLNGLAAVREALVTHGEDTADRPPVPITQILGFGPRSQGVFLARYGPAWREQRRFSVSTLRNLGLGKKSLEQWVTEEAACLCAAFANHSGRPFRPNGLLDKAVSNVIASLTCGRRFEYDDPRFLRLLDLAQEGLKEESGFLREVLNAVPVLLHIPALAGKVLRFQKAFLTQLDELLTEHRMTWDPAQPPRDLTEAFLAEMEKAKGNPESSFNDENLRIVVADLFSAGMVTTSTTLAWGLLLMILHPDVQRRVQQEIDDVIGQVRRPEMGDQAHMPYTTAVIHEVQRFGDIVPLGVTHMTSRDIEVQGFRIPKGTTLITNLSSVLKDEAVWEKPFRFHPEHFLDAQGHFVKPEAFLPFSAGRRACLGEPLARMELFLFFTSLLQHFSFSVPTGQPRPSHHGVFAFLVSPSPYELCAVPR

H4 = test: Luminescence Cell-Based Dose Response HTS to Identify Activators of 5'UTR Stem-Loop Driven Prion Protein mRNA Translation in H4 Neuroglioblastoma Cells. [Related pubchem assays: 1829 (Project Summary), 1814 (Primary HTS)]; format: functional; conditions: Homo sapiens
[9] = Luminescence Cell-Based Dose Response HTS to Identify Activators of Luciferase Translation or Activity in H4 […] Cells. [Related pubchem assays: 1829 (Project Summary), 1814 (Primary HTS)]; format: functional
Cytochrome P450 3A4 = Cytochrome P450 3A4 (Homo sapiens, UniProt P08684);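 note: CYP3A4 tested as one member of a cytochrome P450 panel screen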
Sequence of Cytochrome P450 3A4 (P08684 whole entry): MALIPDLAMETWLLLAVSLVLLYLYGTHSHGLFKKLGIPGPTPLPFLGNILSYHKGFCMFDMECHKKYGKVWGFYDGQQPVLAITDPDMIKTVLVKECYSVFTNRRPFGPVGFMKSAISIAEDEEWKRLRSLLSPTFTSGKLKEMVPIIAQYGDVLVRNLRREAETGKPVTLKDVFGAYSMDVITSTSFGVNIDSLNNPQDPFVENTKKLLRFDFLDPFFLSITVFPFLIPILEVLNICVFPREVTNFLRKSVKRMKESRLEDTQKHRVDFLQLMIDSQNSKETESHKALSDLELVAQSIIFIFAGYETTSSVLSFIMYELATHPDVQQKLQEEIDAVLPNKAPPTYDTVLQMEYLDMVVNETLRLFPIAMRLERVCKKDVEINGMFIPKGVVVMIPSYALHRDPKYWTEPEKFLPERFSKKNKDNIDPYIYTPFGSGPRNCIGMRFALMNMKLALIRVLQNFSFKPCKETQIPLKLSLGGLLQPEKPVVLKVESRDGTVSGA

[10] = test system: Streptococcus sp. 'group A'; test: growth inhibition of control SK(-) GAS strain, dose response, counter-screen for streptokinase expression inhibitor project, luminescence, kanamycin, BacTiterGlo, confirmation (AID 1900); format: functional, organism-based; conditions: Streptococcus sp. 'group A'
Streptokinase A = target: T3, Streptokinase A (Streptococcus pyogenes serotype M1, UniProt P10520); test: S. pyogenes streptokinase expression inhibitors, potency, dose response, plasminogen activation absorbance, OD405 (AID 1914); format: functional, Streptococcus pyogenes M1 GAS;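 note: secreted streptokinase activity via plasminogen activation per viability signal from cell pellet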
T3 sequence (P10520 whole entry): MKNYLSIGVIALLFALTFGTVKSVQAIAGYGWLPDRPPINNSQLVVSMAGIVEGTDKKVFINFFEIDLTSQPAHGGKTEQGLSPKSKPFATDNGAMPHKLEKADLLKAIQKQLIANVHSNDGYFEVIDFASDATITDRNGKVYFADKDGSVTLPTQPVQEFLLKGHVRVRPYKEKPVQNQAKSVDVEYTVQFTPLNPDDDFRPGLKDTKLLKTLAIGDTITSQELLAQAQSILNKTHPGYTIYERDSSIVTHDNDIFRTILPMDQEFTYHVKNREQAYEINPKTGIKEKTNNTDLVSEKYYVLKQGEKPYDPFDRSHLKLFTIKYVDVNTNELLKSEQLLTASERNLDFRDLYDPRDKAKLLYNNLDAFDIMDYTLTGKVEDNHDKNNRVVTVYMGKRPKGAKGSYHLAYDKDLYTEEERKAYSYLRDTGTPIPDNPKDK

Streptococcus = test: Group A Streptococcus viability loss, dose response, counter-screen for streptokinase expression inhibitor project, luminescence, BacTiterGlo (AID 1915); format: functional, organism-based; conditions: Streptococcus;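 note: potency for reduction of bacterial viability or growth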

**Q.** Which EC50 [1] does the source give for CCOC(=O)C1CCN(C(=O)CCS(=O)(=O)c2ccc3c(c2)CC(C)N3C(=O)CC)CC1 (configuration not stated) here?
**A.** The EC50 was > 195 µM (not active).

**Q.** For COc1cccc(NC(=O)Nc2nnc(Cc3ccccc3F)s2)c1, which EC50 [1] is on record?
**A.** The EC50 was > 195 µM (not active).

**Q.** With COC(CN(C)C(=O)c1ccc2c(c1)NC(=O)c1ccccc1S2)OC as the compound, how does the EC50 [2] read?
**A.** Its EC50 is > 38 µM (not active).

**Q.** And the EC50 [3]?
**A.** Its EC50 is > 150 µM (inconclusive).

**Q.** For CCOC(=O)c1cc(CC)sc1NC=C1C(=O)CCCC1=O, which EC50 [1] is on record?
**A.** The EC50 was > 195 µM (not active).

**Q.** Which results are given for CCOc1cc(/C=N/NC(=O)c2cccnc2)ccc1OCC(N)=O?
**A.** EC50 [2]: > 38 µM (not active); EC50 [3]: > 150 µM (inactive)

**Q.** With CCCC(NC(=O)COc1cc2c(c3oc(=O)cc(C)c13)CCC(C)(C)O2)C(=O)O (configuration not stated) as the compound, how does the EC50 [1] read?
**A.** Its EC50 is > 195 µM (not active).

**Q.** What does the source list for Cc1ccc2c(c1)S/C(=C/c1ccc[n+](CCO)c1)N2C?
**A.** EC50 [4]: > 60 µM (not active); EC50 [5]: 0.832 µM (active); AC50 (INS1): 2.98 µM (active)

**Q.** What does the source list for Fc1ccc(N/N=C/c2cccnc2)c(F)c1?
**A.** EC50 [2]: > 38 µM (not active); EC50 [3]: 16.3 µM (inconclusive)

**Q.** Which EC50 [1] does the source give for O=c1c2c3c(sc2nc(NCCOCCO)n1Cc1ccco1)CCCCC3 here?
**A.** Its EC50 is > 195 µM (not active).

**Q.** Which EC50 [1] does the source give for Cc1cc(Nc2cccc(Cl)c2)nc(-c2ccccc2O)n1 here?
**A.** The EC50 was > 195 µM (not active).

**Q.** With COc1ccccc1Nc1ccc2nonc2c1[N+](=O)[O-] as the compound, how does the EC50 [1] read?
**A.** The EC50 was > 195 µM (not active).

**Q.** For CN1/C(=C\P(=O)(N(C)C)N(C)C)C(C)(C)c2ccccc21, which EC50 [4] is on record?
**A.** Its EC50 is > 60 µM (not active).

**Q.** And the EC50 [5]?
**A.** Its EC50 is 2.96 µM (active).

**Q.** And the AC50 (INS1)?
**A.** Its AC50 is 4.32 µM (active).

**Q.** Which EC50 [6] does the source give for Nc1ncccc1OCc1cccc(C(F)(F)F)c1 here?
**A.** The EC50 was > 120 µM (not active).

**Q.** What about the EC50 [7] of the same compound?
**A.** Its EC50 is > 120 µM (not active).

**Q.** And the EC50 [8]?
**A.** Its EC50 is > 120 µM (not active).

**Q.** For Oc1cccc(Nc2ncnc3c2oc2ccccc23)c1, which EC50 [2] is on record?
**A.** The EC50 was 3.71 µM (active).

**Q.** What about the EC50 [3] of the same compound?
**A.** Its EC50 is > 160 µM (inactive).

**Q.** For CCn1c2ccccc2c2cc(NC(=O)C(C)C)ccc21, which EC50 [2] is on record?
**A.** Its EC50 is > 38 µM (not active).

**Q.** What about the EC50 [3] of the same compound?
**A.** Its EC50 is 63.3 µM (active).

**Q.** What does the source list for CCOc1ccc2c(ccc(/C=C/c3cc(C)c4cccnc4c3O)[n+]2C)c1?
**A.** AC50 (Cytochrome P450 1A2): 6.31 µM (inconclusive); AC50 (Cytochrome P450 2D6): 3.16 µM (inconclusive)

**Q.** With CCCCn1c(N(CCOC(C)=O)C(C)=O)nc2ccccc21 as the compound, how does the EC50 [1] read?
**A.** Its EC50 is > 195 µM (not active).

**Q.** For CC(OC(=O)CN1C(=O)c2ccccc2C1=O)C(=O)NC1CCCCC1C (configuration not stated), which EC50 [1] is on record?
**A.** Its EC50 is > 195 µM (not active).

**Q.** Which EC50 [1] does the source give for CCOC(=O)c1c(NC(=O)c2ccccc2)sc2c(O)c(CN(CC)CC)ccc12 here?
**A.** Its EC50 is > 195 µM (not active).

**Q.** Which EC50 (H4) does the source give for CCOC(=O)c1nnc2cc(-c3ccc(Br)cc3)nn2c1C here?
**A.** Its EC50 is 88.8 µM (active).

**Q.** And the EC50 [9]?
**A.** Its EC50 is 27.6 µM (active).

**Q.** Which AC50 (Cytochrome P450 1A2) does the source give for COc1ccccc1N1CCN(C(=O)C(NS(=O)(=O)c2cccs2)c2ccccc2)CC1 (configuration not stated) here?
**A.** The AC50 was 2.51 µM (inconclusive).

**Q.** What about the AC50 (Cytochrome P450 2D6) of the same compound?
**A.** Its AC50 is 15.8 µM (inconclusive).

**Q.** With CCn1cc(C(=O)c2ccccc2)c2ccccc21 as the compound, how does the EC50 [2] read?
**A.** Its EC50 is 3.63 µM (active).

**Q.** What about the EC50 [3] of the same compound?
**A.** Its EC50 is > 160 µM (inactive).

**Q.** For Cc1cc(C)c(S(C)(=O)=O)c(Oc2ccc(C(C)(C)C)cc2)n1, which EC50 [6] is on record?
**A.** The EC50 was 15.7 µM (active).

**Q.** What about the EC50 [7] of the same compound?
**A.** The EC50 was 80.7 µM (active).

**Q.** And the EC50 [8]?
**A.** The EC50 was 1.08 µM (active).

**Q.** What about the AC50 (Cytochrome P450 3A4) of the same compound?
**A.** The AC50 was 14.1 µM (inconclusive).

**Q.** Which results are given for Cc1ccccc1Nc1ncccc1C(=O)N1CCOCC1?
**A.** EC50 [2]: > 38 µM (not active); EC50 [3]: > 160 µM (inactive)

**Q.** For Cc1cc(C)c(NC(=O)CCN2CCN(Cc3ccccc3)CC2)c(C)c1, which EC50 [6] is on record?
**A.** Its EC50 is > 120 µM (not active).

**Q.** What about the EC50 [7] of the same compound?
**A.** The EC50 was > 120 µM (not active).

**Q.** What about the EC50 [8] of the same compound?
**A.** The EC50 was > 120 µM (not active).

**Q.** Which AC50 (INS1) does the source give for CCN(CC)c1ccc(/C=N/NC(=O)Cc2cccs2)c(O)c1 here?
**A.** The AC50 was 0.916 µM (active).

**Q.** Which results are given for Cc1cc(Oc2ccccc2)nc(-c2ccccc2O)n1?
**A.** EC50 [2]: > 38 µM (not active); EC50 [3]: > 150 µM (inconclusive)

**Q.** For Cc1cc(C)c2cc(CN(CCO)C(=O)Nc3ccc(F)cc3)c(O)nc2c1, which EC50 [6] is on record?
**A.** Its EC50 is 18.3 µM (active).

**Q.** What about the EC50 [7] of the same compound?
**A.** Its EC50 is > 120 µM (not active).

**Q.** What about the EC50 [8] of the same compound?
**A.** The EC50 was > 120 µM (not active).

**Q.** Which results are given for O=C(N/N=C/c1ccccc1O)NC12CC3CC(CC(C3)C1)C2?
**A.** EC50 [10]: 22.3 µM (active); EC50 (Streptokinase A): > 150 µM (not active); EC50 (H4): > 120 µM (not active); EC50 (Streptococcus): 15.1 µM (active); EC50 [9]: 28.5 µM (active)

Reference: ChEMBL document CHEMBL1201862, “PubChem BioAssay data set” (2004)
